Measurements from US4347319A, “Microbiological epoxidation process” (priority 1980, dated 1982).
Like-named read-outs stand apart in the source and are kept apart here.

Key:
Format in all cases: cell-based
[1] = system: Methylococcus capsulatus (CRL M1) NRRL B-11,219; assay: Oxidation by washed cell suspensions of methane-grown cells
Summary of the method: (§1)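 Products were quantified by gas chromatography (flame ionization) in headspace/liquid samples taken periodically from sealed vials. Each vial held 2 mg washed methane-grown cells in 0.15 M phosphate pH 7.0 under a 1:1 substrate/oxygen gas phase, shaken at 30 °C.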

[2] = system: Methylosinus trichosporium (CRL 15 PM1) NRRL B-11,202; assay: as above
Summary of the method: as §1

[3] = system: Methylobacter chroococcum (CRL M6) NRRL B-11,214; assay: as above
Summary of the method: as §1

[4] = system: Methylobacterium organophilum (CRL 26 R6) NRRL B-11,222; assay: as above
Summary of the method: as §1

[5] = system: Methylobacter bovis (CRL M1Y) NRRL B-11,216; assay: as above
Summary of the method: as §1

[6] = system: Methylosinus trichosporium OB3b (NRRL B-11,196); assay: Oxidation by cell suspensions of methane-grown cells; details: methane-grown cell-suspension, pH 7.0
[7] = cells grown on methane at 40° C., 30° C. reaction temperature
[8] = methane-grown washed cells, 30° C., methane to methanol, alkene to 1,2-epoxide
[9] = methane-grown cell-suspension, pH 7.0, 3° C.
[10] = methane-grown cell-suspension, pH 7.0, 30° C.
[11] = methane-grown cells, propane to acetone, butane to 2-butanone
[12] = growth substrate Methane, n-alkane to secondary alcohol

With `C=CC` [Propylene] the “conversion rate propylene to propylene oxide” value [1, 7] was 7.88 μ mole/2 hr./mg. protein, the “Oxidative Conversion Rates” value [1, 8] was 5.5 μmole/hr/mg protein and the “Oxidative Conversion Rates” value [2, 8] was 4.5 μmole/hr/mg protein. For the same compound, the “Oxidative Conversion Rates” value [3, 8] was 1.2 μmole/hr/mg protein, the “Oxidative Conversion Rates” value [4, 8] was 2.5 μmole/hr/mg protein and the “conversion rate propylene to propylene oxide” value [5, 7] was 0.27 μ mole/2 hr./mg protein. For the same compound, the “Oxidative Conversion Rates” value [5, 8] was 1.5 μmole/hr/mg protein.

With `CCC` [Propane] the “Conversion Rate to 2-Propanol” value [1, 9] was 0.7 μmoles/hr./mg./protein, the “Conversion Rate to Acetone” value [1, 9] was 0.3 μmoles/hr./mg./protein and the “Conversion Rate to 1-Propanol” value [1, 10] was 0.5 μmoles/hr./mg./protein. The “Conversion Rate to Propanol” value [1, 10] was 0.2 μmoles/hr./mg./protein, the “Conversion Rate to Ketone” value [1, 11] was 4.0 μmoles/hr/mg Protein and the “Conversion Rate” value [2, 12] was 2.1 μmoles/hr/^5 mg. protein. The “Conversion Rate to Ketone” value [2, 11] was 1.6 μmoles/hr/mg Protein, the “Conversion Rate to Ketone” value [3, 11] was 2.0 μmoles/hr/mg Protein and the “Conversion Rate” value [4, 12] was 1.4 μmoles/hr/^5 mg. protein. The “Conversion Rate to Ketone” value [4, 11] was 3.0 μmoles/hr/mg Protein, the “Conversion Rate to 2-Propanol” value ([6]; 3° C.) was 0.6 μmoles/hr./mg./protein and the “Conversion Rate to Acetone” value ([6]; 3° C.) was 0.2 μmoles/hr./mg./protein. The “Conversion Rate to Propanol” value ([6]; 3° C.) was 0.1 μmoles/hr./mg./protein, the “Conversion Rate to 1-Propanol” value ([6]; 30° C.) was 0.4 μmoles/hr./mg./protein and the “Conversion Rate to Ketone” value [5, 11] was 5.0 μmoles/hr/mg Protein.

With `CCCC` [Butane] the “Conversion Rate to Ketone” value [1] was 2 μmoles/hr/mg Protein, the “Conversion Rate to 1-Butanol” value ([1]; pH 7) was 0.4 μmoles/hr./mg./protein and the “Conversion Rate to 2-Butanol” value ([1]; pH 7) was 0.5 μmoles/hr./mg./protein. For the same compound, the “Conversion Rate to 2-Butanone” value ([1]; pH 7) was 0.2 μmoles/hr./mg./protein, the “Conversion Rate to n-butanol” value ([1]; pH 7) was 0.2 μmoles/hr./mg./protein and the “Conversion Rate” value [2] was 1.2 μmoles/hr/^5 mg. protein. The “Conversion Rate to Ketone” value [2] was 1.0 μmoles/hr/mg Protein, the “Conversion Rate to Ketone” value [3] was 1 μmoles/hr/mg Protein and the “Conversion Rate” value [4] was 0.80 μmoles/hr/^5 mg. protein. The “Conversion Rate to Ketone” value [4] was 2.0 μmoles/hr/mg Protein, the “Conversion Rate to 1-Butanol” value ([6]; 3° C.) was 0.3 μmoles/hr./mg./protein and the “Conversion Rate to 2-Butanol” value ([6]; 3° C.) was 0.4 μmoles/hr./mg./protein. For the same compound, the “Conversion Rate to 2-Butanone” value ([6]; 3° C.) was 0.1 μmoles/hr./mg./protein, the “Conversion Rate to n-butanol” value ([6]; 3° C.) was 0.1 μmoles/hr./mg./protein and the “Conversion Rate to Ketone” value [5] was 3 μmoles/hr/mg Protein.

`C` [Methane] was tested, and the “Oxidative Conversion Rates” value [1] was 2.5, the “Conversion Rate to Methanol” value ([1]; pH 7) was 2.5 μmoles/hr./mg./protein and the “Oxidative Conversion Rates” value [2] was 1.2. The “Oxidative Conversion Rates” value [3] was 0.8, the “Oxidative Conversion Rates” value [4] was 0.7 and the “Conversion Rate to Methanol” value ([6]; 3° C.) was 1.5 μmoles/hr./mg./protein. The “Oxidative Conversion Rates” value [5] was 1.5.

For `CCC(C)O` (centres unmarked) [2-Butanol], the “Conversion Rate to Ketone, 2 hrs.” value [1] was 18 μmole/2 mg protein, the “Conversion Rate to Ketone, 20 hrs.” value [1] was 50 μmole/2 mg protein and the “Conversion Rate to Ketone, 2 hrs.” value [2] was 20 μmole/2 mg protein. For the same compound, the “Conversion Rate to Ketone, 2 hrs.” value [3] was 1 μmole/2 mg protein, the “Conversion Rate to Ketone, 20 hrs.” value [3] was 3 μmole/2 mg protein and the “Conversion Rate to Ketone, 2 hrs.” value [4] was 10 μmole/2 mg protein. For the same compound, the “Conversion Rate to Ketone, 2 hrs.” value [5] was 20 μmole/2 mg protein.

With `C=CC=C` [Butadiene] the “Oxidative Conversion Rates” value [1, 8] was 4.4 μmole/hr/mg protein, the “Oxidative Conversion Rates” value [2, 8] was 4.2 μmole/hr/mg protein and the “Oxidative Conversion Rates” value [3, 8] was 1.5 μmole/hr/mg protein. The “Oxidative Conversion Rates” value [4, 8] was 2.8 μmole/hr/mg protein and the “Oxidative Conversion Rates” value [5, 8] was 1.27 μmole/hr/mg protein.
